Data from the supplement of paper PMC10307832.

Columns and labels:
Test in all cases: relative viability (nuclei count vs DMSO), 5 days (fraction); higher = more cells survive
Alpelisib + Decitabine = compound: Cc1nc(NC(=O)N2CCC[C@H]2C(N)=O)sc1-c1ccnc(C(C)(C)C(F)(F)F)c1 [Alpelisib] + Nc1ncn([C@H]2C[C@H](O)[C@@H](CO)O2)c(=O)n1 [Decitabine] (partner 2 µM)
Procedure, shortened: (§1)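 Lung cancer cell lines were seeded in 1536-well plates and dosed by pin tool the next day, with either a single drug or a fixed anchor-drug dose combined with five library-drug doses (not always all listed) spaced in √10 steps. Five days later, one step fixed the cells and stained their nuclei (final 0.05% Triton X-100, 1% formaldehyde, 1 ug/ml Hoechst), and nuclei were counted on 4× images. Relative viability is the nuclei count in treated wells divided by the count in vehicle wells, and each value is the median of duplicate plates.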

Alpelisib + Palbociclib = compound: Cc1nc(NC(=O)N2CCC[C@H]2C(N)=O)sc1-c1ccnc(C(C)(C)C(F)(F)F)c1 [Alpelisib] + CC(=O)c1c(C)c2cnc(Nc3ccc(N4CCNCC4)cn3)nc2n(C2CCCC2)c1=O [Palbociclib] (partner 0.5 µM)
Procedure, shortened: as §1

Alpelisib + Linsitinib = compound: Cc1nc(NC(=O)N2CCC[C@H]2C(N)=O)sc1-c1ccnc(C(C)(C)C(F)(F)F)c1 [Alpelisib] + C[C@]1(O)C[C@@H](c2nc(-c3ccc4ccc(-c5ccccc5)nc4c3)c3c(N)nccn32)C1 [Linsitinib] (partner 1 µM)
Procedure, shortened: as §1

OSI-027 + Bortezomib = compound: COc1cccc2cc(-c3nc([C@H]4CC[C@H](C(=O)O)CC4)n4ncnc(N)c34)[nH]c12 [OSI-027] + CC(C)C[C@H](NC(=O)[C@H](Cc1ccccc1)NC(=O)c1cnccn1)B(O)O [Bortezomib] (partner 0.002 µM)
Procedure, shortened: as §1

Cell Line | relative viability (Alpelisib + Decitabine; first compound 0.04 µM) | relative viability (Alpelisib + Decitabine; first compound 0.1265 µM) | relative viability (Alpelisib + Decitabine; first compound 0.4 µM) | relative viability (Alpelisib + Decitabine; first compound 1.265 µM) | relative viability (Alpelisib + Decitabine; first compound 4 µM) | relative viability (Alpelisib + Palbociclib; first compound 0.04 µM) | relative viability (Alpelisib + Palbociclib; first compound 0.1265 µM) | relative viability (Alpelisib + Palbociclib; first compound 0.4 µM) | relative viability (Alpelisib + Palbociclib; first compound 1.265 µM) | relative viability (Alpelisib + Palbociclib; first compound 4 µM) | relative viability (Alpelisib + Linsitinib; first compound 0.04 µM) | relative viability (Alpelisib + Linsitinib; first compound 0.1265 µM) | relative viability (Alpelisib + Linsitinib; first compound 0.4 µM) | relative viability (Alpelisib + Linsitinib; first compound 1.265 µM) | relative viability (Alpelisib + Linsitinib; first compound 4 µM) | relative viability (OSI-027 + Bortezomib; first compound 0.01 µM) | relative viability (OSI-027 + Bortezomib; first compound 0.03162 µM) | relative viability (OSI-027 + Bortezomib; first compound 0.1 µM) | relative viability (OSI-027 + Bortezomib; first compound 0.3162 µM) | relative viability (OSI-027 + Bortezomib; first compound 1 µM)
A-427 | 0.518 | 0.483 | 0.574 | 0.461 | 0.44 | 0.5 | 0.507 | 0.521 | 0.493 | 0.437 | 1.11 | 1.14 | 1.22 | 1.01 | 1.09 | 1.13 | 0.965 | 0.967 | 0.803 | 0.578
NCI-H1703 | – | – | – | – | – | – | – | – | – | – | 0.899 | 0.631 | 0.661 | 0.438 | 0.354 | 0.361 | 0.302 | 0.238 | 0.233 | 0.187
HCC-366 | 0.322 | 0.318 | 0.327 | 0.231 | 0.194 | 0.421 | 0.356 | 0.36 | 0.247 | 0.162 | 0.716 | 0.519 | 0.375 | 0.327 | 0.152 | 1.18 | 1.2 | 1.03 | 1.07 | 0.733
NCI-H661 | 0.56 | 0.586 | 0.576 | 0.474 | 0.495 | 0.365 | 0.367 | 0.411 | 0.412 | 0.359 | 0.58 | 0.573 | 0.613 | 0.439 | 0.458 | 0.811 | 0.734 | 0.802 | 0.666 | 0.395
NCI-H2126 | 0.586 | 0.576 | 0.607 | 0.454 | 0.428 | 0.363 | 0.334 | 0.345 | 0.359 | 0.334 | 0.682 | 0.716 | 0.66 | 0.698 | 0.63 | 1.02 | 1.13 | 1.05 | 0.989 | 0.87
LCLC-97TM1 | 0.232 | 0.222 | 0.213 | 0.191 | 0.177 | 0.206 | 0.177 | 0.183 | 0.119 | 0.0948 | 0.167 | 0.167 | 0.192 | 0.157 | 0.16 | 0.271 | 0.554 | 0.369 | 0.154 | 0.193
NCI-H2405 | 0.756 | 0.731 | 0.699 | 0.517 | 0.58 | 0.515 | 0.536 | 0.52 | 0.43 | 0.462 | 1.07 | 0.935 | 1.02 | 0.781 | 0.847 | 0.982 | 1.04 | 0.872 | 0.866 | 0.425
COR-L 105 | 0.55 | 0.736 | 0.706 | 0.683 | 0.569 | 0.394 | 0.439 | 0.414 | 0.367 | 0.364 | 1.04 | 0.874 | 0.976 | 0.902 | 0.841 | 0.682 | 0.716 | 0.779 | 0.572 | 0.428
BEN | 0.776 | 0.679 | 0.837 | 0.693 | 0.749 | 0.485 | 0.504 | 0.516 | 0.439 | 0.447 | 0.859 | 0.857 | 1.14 | 0.828 | 0.959 | 0.653 | 0.83 | 0.488 | 0.379 | 0.389
HCC-827 | 0.33 | 0.346 | 0.347 | 0.302 | 0.254 | 0.509 | 0.489 | 0.485 | 0.41 | 0.386 | 0.942 | 0.979 | 1.04 | 0.925 | 0.924 | 0.973 | 1.07 | 1.06 | 1.12 | 1.05
NCI-H3122 | 0.371 | 0.454 | 0.374 | 0.278 | 0.209 | 0.163 | 0.162 | 0.188 | 0.185 | 0.144 | 0.994 | 0.938 | 1.02 | 0.715 | 0.675 | 1.11 | 1.04 | 1.11 | 1.02 | 0.87
NCI-H1299 | – | – | – | – | – | – | – | – | – | – | 0.975 | 0.984 | 1.14 | 0.866 | 0.843 | 1.09 | 1.03 | 1.06 | 1.08 | 1.1
LK-2 | 0.289 | 0.256 | 0.254 | 0.198 | 0.185 | 0.653 | 0.645 | 0.499 | 0.322 | 0.314 | 0.385 | 0.574 | 0.549 | 0.46 | 0.687 | – | – | – | – | –
HCC-15 | 0.642 | 0.531 | 0.622 | 0.504 | 0.383 | 0.749 | 0.702 | 0.773 | 0.617 | 0.551 | 0.892 | 0.873 | 0.878 | 0.863 | 0.767 | 1.07 | 0.988 | 1 | 1.01 | 0.71
IA-LM | – | – | – | – | – | – | – | – | – | – | 0.565 | 0.424 | 0.829 | 0.616 | 0.493 | 0.736 | 0.765 | 0.438 | 0.21 | 0.113
